According to patent US20170121344A1 (Siga Technologies, Inc., priority 2009, published 2017):
Where two headings read alike, the source gives them in different places.

Tested on: Dengue-2 (Strain New Guinea C)
Assay: Viral yield assay against Dengue-2 in Vero cells
Format: cell-based, Dengue virus
Conditions: Dengue virus, read-out: Activity (EC50 class) against Dengue-2 Virus in Vero cells
Method in brief: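 Yield reduction, Vero; MOI 0.1; compound vs DMSO; 37° C; harvest 48 h p.i.; titer on Vero; EC50 fitted. Other serotypes run the same way.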

[1] = Vero cells, MOI 0.1, harvested 48 hours post infection

Row | Compound | EC50 (Vero, 48 h) [µM] | EC50 [1] [µM]
1 | Cc1cc(C)c2c(N)c(C(=O)Nc3ccc(F)c(Cl)c3)sc2n1 [Compound 200, 3-Amino-4,6-dimethyl-thieno[2,3-b]pyridine-2-carboxylic acid (3-chloro-4-fluoro-phenyl)-amide] | > 25 | 
2 | Cn1cnc2c(sc3nc4c(cc32)COC(C)(C)C4)c1=O [Compound 201, 2,8,8-Trimethyl-8,9-dihydro-2H,6H-7-oxa-11-thia-2,4,10-triaza-benzo[b]fluoren-1-one] | > 25 | 
3 | C=CCn1cnc2c(sc3nc4c(cc32)COC(C)(C)C4)c1=O [Compound 202, 2-Allyl-8,8-dimethyl-8,9-dihydro-2H,6H-7-oxa-11-thia-2,4,10-triaza-benzo[b]fluoren-1-one] |  | > 25
4 | C=C(C)Cn1cnc2c(sc3nc4c(cc32)COC(C)(C)C4)c1=O [Compound 203, 8,8-Dimethyl-2-(2-methyl-allyl)-8,9-dihydro-2H,6H-7-oxa-11-thia-2,4,10-triaza-benzo[b]fluoren-1-one] |  | > 25
5 | CC(=O)Nc1ccc(NC(=O)c2sc3nc4c(cc3c2N)CCCC4)cc1 [Compound 204, 3-Amino-5,6,7,8-tetrahydro-thieno[2,3-b]quinoline-2-carboxylic acid (4-acetylamino-phenyl)-amide] |  | > 25
6 | Nc1c(C(=O)NCCc2ccccc2)sc2nc3c(cc12)CCCCC3 [Compound 205, 3-Amino-6,7,8,9-tetrahydro-5H-1-thia-10-aza-cyclohepta[f]indene-2-carboxylic acid phenethyl-amide] |  | > 25
7 | CC(C)Cc1ccc2c(N)c(C(=O)Nc3ccccc3)sc2n1 [Compound 206, 3-Amino-6-isobutyl-thieno[2,3-b]pyridine-2-carboxylic acid phenylamide] | > 25 | 
8 | Nc1c(C(=O)N(c2ccccc2)c2ccccc2)sc2nc3c(cc12)CCC3 [Compound 207, 3-Amino-6,7-dihydro-5H-cyclopenta[b]thieno[3,2-e]pyridine-2-carboxylic acid diphenylamide] |  | > 25
9 | CCc1c2c(nc3sc(C(=O)N4CCOCC4)c(N)c13)CC(C)(C)CC2=O [Compound 208, 3-Amino-4-ethyl-7,7-dimethyl-2-(morpholine-4-carbonyl)-7,8-dihydro-6H-thieno[2,3-b]quinolin-5-one] |  | > 25
10 | COCc1cc(C)nc2sc(C(=O)NCc3ccco3)c(N)c12 [Compound 209, 3-Amino-4-methoxymethyl-6-methyl-thieno[2,3-b]pyridine-2-carboxylic acid (furan-2-ylmethyl)-amide] |  | > 25
11 | COCc1cc(C)nc2sc(C(=O)Nc3ccccc3C)c(N)c12 [Compound 210, 3-Amino-4-methoxymethyl-6-methyl-thieno[2,3-b]pyridine-2-carboxylic acid o-tolylamide] | > 25 | 
12 | COCc1cc(C)nc2sc(C(=O)Nc3cc(Cl)ccc3Cl)c(N)c12 [Compound 211, 3-Amino-4-methoxymethyl-6-methyl-thieno[2,3-b]pyridine-2-carboxylic acid (2,5-dichloro-phenyl)-amide] |  | > 25
13 | Nc1c(C(=O)Nc2ccc([N+](=O)[O-])cc2)sc2nc3c(c(-c4ccco4)c12)CCC3 [Compound 212, 3-Amino-4-furan-2-yl-6,7-dihydro-5H-cyclopenta[b]thieno[3,2-e]pyridine-2-carboxylic acid (4-nitro-phenyl)-amide] |  | > 25
14 | Nc1c(C(=O)Nc2ccc([N+](=O)[O-])cc2)sc2nc3c(c(-c4ccco4)c12)CCCC3 [Compound 213, 3-Amino-4-furan-2-yl-5,6,7,8-tetrahydro-thieno[2,3-b]quinoline-2-carboxylic acid (4-nitro-phenyl)-amide] |  | > 25
15 | CC1(C)CC(=O)c2cc3c(N)c(C(=O)Nc4ccc([N+](=O)[O-])cc4)sc3nc2C1 [Compound 214, 3-Amino-7,7-dimethyl-5-oxo-5,6,7,8-tetrahydro-thieno[2,3-b]quinoline-2-carboxylic acid (4-nitro-phenyl)-amide] |  | > 25
16 | Nc1c(C(=O)Nc2ccc([N+](=O)[O-])cc2)sc2nc3c(cc12)CCC3 [Compound 215, 3-Amino-6,7-dihydro-5H-cyclopenta[b]thieno[3,2-e]pyridine-2-carboxylic acid (4-nitro-phenyl)-amide] |  | > 25
17 | C=CCc1c(C)nc2sc(C(=O)Nc3ccc(Br)cc3)c(N)c2c1C [Compound 216, 5-Allyl-3-amino-4,6-dimethyl-thieno[2,3-b]pyridine-2-carboxylic acid (4-bromo-phenyl)-amide] |  | > 25
18 | Nc1c(C(=O)Nc2ccccc2)sc2nc3c(cc12)CCCCC3 [Compound 217, 3-Amino-6,7,8,9-tetrahydro-5H-1-thia-10-aza-cyclohepta[f]indene-2-carboxylic acid phenylamide] |  | > 25
19 | Cc1ccccc1NC(=O)c1sc2nc3c(c(-c4ccco4)c2c1N)CCCC3 [Compound 218, 3-Amino-4-furan-2-yl-5,6,7,8-tetrahydro-thieno[2,3-b]quinoline-2-carboxylic acid o-tolylamide] | > 25 | 

Row | Compound | EC50 (Vero, 48 h) [µM] | EC50 [1] [µM]
20 | CCc1ccccc1NC(=O)c1sc2nc3c(c(-c4ccco4)c2c1N)CCC3 [Compound 219, 3-Amino-4-furan-2-yl-6,7-dihydro-5H-cyclopenta[b]thieno[3,2-e]pyridine-2-carboxylic acid (2-ethyl-phenyl)-amide] |  | > 25
21 | Cc1ccc(-c2c3c(nc4sc(C(N)=O)c(N)c24)CCCCC3)cc1 [Compound 220, 3-Amino-4-p-tolyl-6,7,8,9-tetrahydro-5H-1-thia-10-aza-cyclohepta[f]indene-2-carboxylic acid amide] |  | > 25
22 | Nc1c(C(=O)Nc2ccc([N+](=O)[O-])cc2)sc2nc(-c3cccs3)cc(C(F)(F)F)c12 [Compound 221, 3-Amino-6-thiophen-2-yl-4-trifluoromethyl-thieno[2,3-b]pyridine-2-carboxylic acid (4-nitro-phenyl)-amide] |  | > 25
23 | CC1(C)CC(=O)c2cc3c(N)c(C(=O)Nc4ccccc4[N+](=O)[O-])sc3nc2C1 [Compound 222, 3-Amino-7,7-dimethyl-5-oxo-5,6,7,8-tetrahydro-thieno[2,3-b]quinoline-2-carboxylic acid (2-nitro-phenyl)-amide] |  | > 25
24 | Nc1c(C(=O)Nc2nccs2)sc2nc3c(c(-c4cccs4)c12)CCCCC3 [Compound 223, 3-Amino-4-thiophen-2-yl-6,7,8,9-tetrahydro-5H-1-thia-10-aza-cyclohepta[f]indene-2-carboxylic acid thiazol-2-ylamide] | > 25 | 
25 | NC(=O)c1sc2nc3c(c(-c4ccc(Cl)cc4)c2c1N)CCCC3 [Compound 224, 3-Amino-4-(4-chloro-phenyl)-5,6,7,8-tetrahydro-thieno[2,3-b]quinoline-2-carboxylic acid amide] | > 25 | 
26 | C=CCc1c(C)nc2sc(C(=O)Nc3ccc([N+](=O)[O-])cc3)c(N)c2c1C [Compound 225, 5-Allyl-3-amino-4,6-dimethyl-thieno[2,3-b]pyridine-2-carboxylic acid (4-nitro-phenyl)-amide] |  | > 25
27 | CC1(C)CC(=O)c2cc3c(N)c(C(=O)Nc4ccc5c(c4)OCO5)sc3nc2C1 [Compound 226, 3-Amino-7,7-dimethyl-5-oxo-5,6,7,8-tetrahydro-thieno[2,3-b]quinoline-2-carboxylic acid benzo[1,3]dioxol-5-ylamide] |  | > 25
28 | Cc1ccc(-c2c3c(nc4sc(C(N)=O)c(N)c24)CCCC3)cc1 [Compound 227, 3-Amino-4-p-tolyl-5,6,7,8-tetrahydro-thieno[2,3-b]quinoline-2-carboxylic acid amide] |  | > 25
29 | Nc1c(C(=O)Nc2ccc([N+](=O)[O-])cc2)sc2nc3c(cc12)CCCC3 [Compound 228, 3-Amino-5,6,7,8-tetrahydro-thieno[2,3-b]quinoline-2-carboxylic acid (4-nitro-phenyl)-amide] |  | > 25
30 | COCc1cc(C)nc2sc(C(=O)Nc3ccc(C)c(Cl)c3)c(N)c12 [Compound 229, 3-Amino-4-methoxymethyl-6-methyl-thieno[2,3-b]pyridine-2-carboxylic acid (3-chloro-4-methyl-phenyl)-amide] |  | > 25
31 | Cc1nc2c(sc3nc4c(cc32)COC(C)(C)C4)c(=O)n1CCc1ccccc1 [Compound 230, 3,8,8-Trimethyl-2-phenethyl-8,9-dihydro-2H,6H-7-oxa-11-thia-2,4,10-triaza-benzo[b]fluoren-1-one] | > 25 | 
32 | Cc1nc2c(sc3nc4c(cc32)COC(C)(C)C4)c(=O)n1CCN1CCOCC1 [Compound 231, 3,8,8-Trimethyl-2-(2-morpholin-4-yl-ethyl)-8,9-dihydro-2H,6H-7-oxa-11-thia-2,4,10-triaza-benzo[b]fluoren-1-one] | > 25 | 
33 | CC1(C)Cc2nc3sc4c(=O)[nH]cnc4c3cc2CS1 [Compound 232, 8,8-Dimethyl-8,9-dihydro-2H,6H-7,11-dithia-2,4,10-triaza-benzo[b]fluoren-1-one] | > 25 | 
34 | CC1(C)Cc2c(c(N3CCOCC3)nc3sc4c(=O)n(-c5ccccc5)cnc4c23)CO1 [Compound 233, 2,2-Dimethyl-5-morpholin-4-yl-9-phenyl-1,4-dihydro-2H,9H-3-oxa-7-thia-6,9,11-triaza-benzo[c]fluoren-8-one] |  | > 25
35 | CC1(C)Cc2c(c(N3CCOCC3)nc3sc(C(=O)N4CCOCC4)c(N)c23)CO1 [Compound 234, (1-Amino-8,8-dimethyl-5-morpholin-4-yl-8,9-dihydro-6H-7-oxa-3-thia-4-aza-cyclopenta[a]naphthalen-2-yl)-morpholin-4-yl-methanone] |  | > 25
36 | CCc1nc2c(sc3nc4c(cc32)COC(C)(C)C4)c(=O)n1Cc1ccco1 [Compound 235, 3-Ethyl-2-furan-2-ylmethyl-8,8-dimethyl-8,9-dihydro-2H,6H-7-oxa-11-thia-2,4,10-triaza-benzo[b]fluoren-1-one] | > 25 | 
37 | Cc1nc2c(sc3nc4c(cc32)COC(C)(C)C4)c(=O)n1CC1CCCO1 (stereo not shown) [Compound 236, 3,8,8-Trimethyl-2-(tetrahydro-furan-2-ylmethyl)-8,9-dihydro-2H,6H-7-oxa-11-thia-2,4,10-triaza-benzo[b]fluoren-1-one] |  | > 25
